Results as given in publication PMC4122355, “Inhibitor of the Tyrosine Phosphatase STEP Reverses Cognitive Deficits in a Mouse Model of Alzheimer's Disease” (PLoS Biology, 2014).

Experiments:
[1] = cited from earlier work
Aβ and phospho-tau = Aβ and phospho-tau levels in 12-mo-old 3xTg-AD mice; type: in vivo, mouse; settings: 10 mg/kg i.p.
Procedure: Time spent with either a novel or familiar object was recorded using ANY-maze software. Square-root transformation was used to meet the assumptions of normality and equal variance of the raw data. All histograms are presented as means ± s.e.m. Student's t test was applied to determine significance differences (*p<0.05; WT-Veh, n = 10; WT TC, n = 11; AD-Veh, n = 22; AD-TC, n = 19). […] CTFs and Aβ are indicated by arrowheads. Representative 7PA2-CM (Aβ-enriched conditioned medium) immunoprecipitation is shown on right panel. Data are presented as means ± s.e.m. […] Data are presented as means ± s.e.m. […] (TIF) Click here for additional data file.

[2] = system: GluN2B Y1472, Pyk2 Y402, ERK1/2 Y204/187 in WT and STEP KO cortical neurons; assay: Tyr phosphorylation of STEP substrates in WT and STEP KO mouse cortical cultures; type: cell-based; settings: 1 h
Procedure: Primary cortical neurons were isolated from Sprague Dawley rat embryos (E18) (Charles River Laboratories, Wilmington, MA) as previously described. In some experiments, cortical neurons were made from WT and STEP KO mouse embryos (E18). Neurons were allowed to grow for 18–21 d in CO2 incubator before addition of compounds at indicated doses for 1 h. Immediately following treatments, neurons were lysed in RadioImmuno Precipitation Assay (RIPA) buffer supplied with protease inhibitor cocktail (Roche Applied Science, Indianapolis, IN) and phosphatase inhibitors (NaF and Na3VO4). All experiments were replicated four times with four independent batches of cultures.
Samples were prepared and resolved by SDS-PAGE, transferred to nitrocellulose membrane, and incubated with phospho-specific antibodies (anti-pY^204/187 ERK1/2, anti-pY^402 Pyk2, anti-pY^1472 GluN2B) or total protein antibodies (anti-ERK2, anti-Pyk2, and anti-NR2B) overnight at 4°C. Immunoreactivity was visualized using a Chemiluminescent substrate kit (Pierce Biotechnology, Rockford, IL) and detected using a G:BOX with the image program GeneSnap (Syngene, Cambridge, UK). All densitometric quantifications were performed using the Genetools program.

mice = system: mice; design: method as in earlier work; settings: cited from earlier work
cortical cultures = assay: LDH release toxicity assay in cortical cultures; type: cell-based; settings: up to 100 µM, up to 48 h, compared to positive controls
Procedure: Bovine LDH was used as a LDH-positive control. The media was collected and analyzed for LDH. The assay quantitatively measures LDH, a stable cytosolic enzyme that is released upon cell lysis. Released LDH in culture supernatants is measured with a 30-min coupled enzymatic assay, which results in the conversion of a tetrazolium salt (INT) into a red formazan product. The amount of color formed is proportional to the number of lysed cells.

[3] = system: ERK1/2 (Y204/187) and Pyk2 (Y402); assay: Tyr phosphorylation of ERK1/2 and Pyk2 in different organs of WT and STEP KO mice; type: in vivo, mouse
PTP1B = biological target: T1, PTP1B (Homo sapiens, UniProt P18031); assay: Selectivity pNPP assay, full-length PTPs: PTP1B; type: biochemical; settings: full-length PTP, 10 nM, 500 µM pNPP
T1 construct: GST (N); host or cells: E. coli BL21 (DE3)
T1 sequence (P18031 1-435): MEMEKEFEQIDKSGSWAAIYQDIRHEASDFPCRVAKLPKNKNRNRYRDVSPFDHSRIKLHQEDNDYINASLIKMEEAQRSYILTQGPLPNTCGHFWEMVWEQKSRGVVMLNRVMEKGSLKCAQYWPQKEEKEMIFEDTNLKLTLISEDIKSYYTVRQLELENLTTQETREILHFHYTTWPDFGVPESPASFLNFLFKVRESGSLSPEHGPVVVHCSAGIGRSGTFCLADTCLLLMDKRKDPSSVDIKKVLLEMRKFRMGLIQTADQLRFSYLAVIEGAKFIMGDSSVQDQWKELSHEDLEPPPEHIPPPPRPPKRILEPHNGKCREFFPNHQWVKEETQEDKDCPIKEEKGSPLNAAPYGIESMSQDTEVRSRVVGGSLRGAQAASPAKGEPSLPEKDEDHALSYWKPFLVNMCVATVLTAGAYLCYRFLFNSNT
Source text: Constructs were transformed into BL21 (DE3) E. coli cells. Fusion proteins were purified on a glutathione sepharose column.

3xTg-AD and WT mice = assay: Novel object recognition (NOR) task; type: in vivo, mouse; settings: 10 mg/kg i.p.
Procedure: Mice were first habituated to the task by allowing them to explore an empty white open field box (60 cm×60 cm) for 5 min. […] After the elapsed time, the mice completed the sample phase in which they were placed into the open field box with two identical objects located in the right and left corners. Mice were allowed to freely explore until they had accumulated a total of 30 s of object exploration (i.e., contact with the object with the nose and/or front paws), at which point the trial ended. The time spent with each object was recorded. Mice that were unable to complete the 30 s exploration within 20 min during the sample phase were excluded from the study (WT = 1 and AD = 3). Twenty-four hours later, mice completed the choice phase that was conducted in an identical manner to the sample phase except that one of the objects was substituted by a novel object and trial duration was set at 5 min. No drug treatments were given during the choice phase. Fifteen WT mice from the initial cohort were used to optimize the novel object conditions (to identify object pairings of inherent equal interest). Location of the novel object (left or right side) was counterbalanced to minimize possible bias. […] The DI was calculated for each subject by using the following formula: DI = (time spent exploring novel object – time spent exploring familiar object)/(total time spent exploring both objects). […]

PTP-SL = PTP-SL (Homo sapiens, UniProt Q15256); assay: biochemical
Chain of PTP-SL (Q15256 22-657): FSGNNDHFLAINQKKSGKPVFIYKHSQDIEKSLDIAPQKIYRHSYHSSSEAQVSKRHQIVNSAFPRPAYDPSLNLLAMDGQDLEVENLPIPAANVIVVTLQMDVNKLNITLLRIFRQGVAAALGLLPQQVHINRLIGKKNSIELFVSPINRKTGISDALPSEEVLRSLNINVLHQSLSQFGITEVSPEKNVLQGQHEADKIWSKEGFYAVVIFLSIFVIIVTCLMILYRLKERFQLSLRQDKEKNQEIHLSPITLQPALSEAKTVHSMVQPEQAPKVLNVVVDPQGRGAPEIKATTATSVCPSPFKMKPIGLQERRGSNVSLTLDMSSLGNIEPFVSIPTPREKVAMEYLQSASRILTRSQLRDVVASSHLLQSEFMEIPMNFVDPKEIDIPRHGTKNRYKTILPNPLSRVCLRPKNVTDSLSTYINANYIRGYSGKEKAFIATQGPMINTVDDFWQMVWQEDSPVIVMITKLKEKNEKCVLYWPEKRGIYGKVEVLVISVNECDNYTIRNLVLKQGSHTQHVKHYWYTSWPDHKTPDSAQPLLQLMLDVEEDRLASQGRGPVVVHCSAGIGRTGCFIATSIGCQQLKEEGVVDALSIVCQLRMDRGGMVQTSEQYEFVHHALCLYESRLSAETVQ
Procedure: Full-length HePTP and PTP-SL proteins were purchased from Abnova (Taipei, Taiwan). All proteins were dialyzed in 1,000-fold volume of buffer, which was repeated three times. […] After 10 min preincubation of enzyme and inhibitor at 27°C, 500 µM of pNPP was added and incubated for 30 min. Absorbance was taken at 405 nm using a Biotek plate reader.

SMILES: Cl.Nc1cc(C(F)(F)F)cc2c1SSSSS2 [TC-2153, 8-(trifluoromethyl)-1,2,3,4,5-benzopentathiepin-6-amine hydrochloride]
- Solubility in aqueous solution [1]: reasonable solubility in aqueous solution
- Aβ or phospho-tau levels (Aβ and phospho-tau): no significant changes in Aβ or phospho-tau levels
- Aβ or phospho-tau levels (Aβ and phospho-tau; row): did not affect the Aβ and tau brain pathology
- Tyr phosphorylation of STEP substrates in STEP KO cortical cultures ([2]; STEP KO cultures, TC-2153 0.1 and 1 µM, Na3VO4 1 mM): failed to increase the phosphorylation of STEP substrates
- Tyr phosphorylation of STEP substrates in WT mouse cortical neurons ([2]; WT cultures, 0.1 and 1 µM): an increase in the Tyr phosphorylation of STEP substrates
- Behavioural effects taken as evidence of crossing the blood brain barrier (mice): anxiolytic and anticonvulsant effects
- LDH release (neuronal cell death) (cortical cultures): no significant effect on LDH release
- pERK1/2 and pPyk2 in hippocampus and frontal cortex of STEP KO mice ([3]; STEP KO mice): did not increase the Tyr phosphorylation of these substrates over baseline levels
- pERK1/2 and pPyk2 in frontal cortex and hippocampus ([3]; WT mice, 10 mg/kg i.p., 3 h): significant increase in pERK1/2 and pPyk2
- pERK1/2 and pPyk2 in cerebellum, spleen, kidney, pancreas (tissues without STEP) ([3]; mice, 10 mg/kg i.p., 3 h): not in the cerebellum or in all tissues tested outside the brain
- IC50 (PTP1B): 723.9 ± 1.2 nM
- NOR memory in 12-mo-old AD mice (3xTg-AD and WT mice; 12-mo-old 3xTg-AD mice, familiar versus novel p<0.05): significant improvement of memory
- NOR cognitive function in 12-mo-old WT mice (3xTg-AD and WT mice; WT mice, 12 mo cohort): did not affect cognitive function
- IC50 (PTP-SL): 220.6 ± 1.3 nM
